Measured values taken from US8507509B2, “Saturated and insaturated bi- or tricyclic aryloxyacetamine derivatives and their use as fungicides” (Syngenta Crop Protection LLC, priority 2007, dated 2013).

What was measured:
[1] = tested on: Phytophthora infestans; test: whole plant or invertebrate; assay type: in vivo; conditions: in Solanum lycopersicum, foliar, 96 h, read-out: control of fungal infection, Phytophthora infestans
[2] = tested on: Pythium ultimum; test: Pythium ultimum (Damping off), liquid culture growth inhibition in potato dextrose broth; assay type: cell-based; conditions: Globisporangium ultimum; 20 ppm; potato dextrose broth, 24° C.; inhibition of growth determined photometrically after 48 hours; read-out: control of fungal infection, Pythium ultimum
[3] = tested on: Septoria tritici; test: Septoria tritici (leaf blotch), liquid culture growth inhibition in nutrient broth; assay type: cell-based; conditions: Zymoseptoria tritici; 200 ppm; PDB broth, 24 C; inhibition of growth determined photometrically after 72 hrs; read-out: control of fungal infection, Septoria tritici
[4] = tested on: Plasmopara viticola; test: Plasmopara viticola (downy mildew of grapevine), grapevine leaf disk assay, preventive; assay type: in vivo; conditions: foliar, 168 h, 200 ppm, grapevine leaf disks, assessed seven days after inoculation, read-out: control of fungal infection, Plasmopara viticola
[5] = tested on: Erysiphe graminis f.sp. tritici; test: Erysiphe graminis f.sp. tritici (wheat powdery mildew), wheat leaf segment assay, preventive; assay type: in vivo; conditions: Blumeria graminis, foliar, 96 h; 200 ppm; wheat leaf segments; assessed four days after inoculation; read-out: control of fungal infection, Etysiphe graminis f.sp. tritici
[6] = tested on: Septoria nodorum; test: Septoria nodorum (wheat glume blotch), wheat leaf segment assay, preventive; assay type: in vivo; conditions: Parastagonospora nodorum, foliar, 96 h; 200 ppm; wheat leaf segments; assessed four days after inoculation; read-out: control of fungal infection, Septoria nodorum

C=CCON=CC(C)(C)NC(=O)C(CC)Oc1ccc2ncc(I)cc2c1 (centres unmarked) [Compound No. 4, N-(2-Allyloxyimino-1,1-dimethyl-ethyl)-2-(3-iodo-quinolin-6-yloxy)-butyramide]
≥ 60%: pest or weed control at 200 ppm [1] | inhibition of growth at 20 ppm [2] | inhibition of growth at 200 ppm [3] | pest or weed control at 200 ppm [4] | pest or weed control at 200 ppm [5]

CSC(Oc1ccc2ncc(Br)cc2c1)C(=O)NC(C)(C)C=NOc1ccccc1 (centres unmarked) [Compound No. 8, 2-(3-Bromo-quinolin-6-yloxy)-N-(1,1-dimethyl-2-phenoxyimino-ethyl)-2-methylsulfanyl-acetamide]
≥ 60%: pest or weed control at 200 ppm [1] | inhibition of growth at 20 ppm [2] | inhibition of growth at 200 ppm [3] | pest or weed control at 200 ppm [4]

CCCCON=CC(C)(C)NC(=O)C(Oc1ccc2ncc(Br)cc2c1)SC (centres unmarked) [Compound No. 14, 2-(3-Bromo-quinolin-6-yloxy)-N-(2-butoxyimino-1,1-dimethyl-ethyl)-2-methylsulfanyl-acetamide]
≥ 60%: pest or weed control at 200 ppm [1] | inhibition of growth at 20 ppm [2] | pest or weed control at 200 ppm [4]

CSC(Oc1ccc2ncc(Br)cc2c1)C(=O)NC(C)(C)C=NO (centres unmarked) [Compound No. 19, 2-(3-Bromo-quinolin-6-yloxy)-N-(2-hydroxyimino-1,1-dimethyl-ethyl)-2-methylsulfanyl-acetamide]
≥ 60%: pest or weed control at 200 ppm [1] | inhibition of growth at 20 ppm [2] | inhibition of growth at 200 ppm [3] | pest or weed control at 200 ppm [4] | pest or weed control at 200 ppm [5]

CON=CC(C)(C)NC(=O)C(Oc1cc(Br)c2ncc(Br)cc2c1)SC (centres unmarked) [Compound No. 34, 2-(3,8-Dibromo-quinolin-6-yloxy)-N-(2-methoxyimino-1,1-dimethyl-ethyl)-2-methylsulfanyl-acetamide]
≥ 60%: pest or weed control at 200 ppm [6] | inhibition of growth at 200 ppm [3]

C#Cc1cnc2ccc(OC(SC)C(=O)NC(C)(C)C=NOC)cc2c1 (centres unmarked) [Compound No. 38, 2-(3-Ethynyl-quinolin-6-yloxy)-N-(2-methoxyimino-1,1-dimethyl-ethyl)-2-methylsulfanyl-acetamide]
≥ 60%: pest or weed control at 200 ppm [1] | pest or weed control at 200 ppm [6] | inhibition of growth at 200 ppm [3] | pest or weed control at 200 ppm [4] | pest or weed control at 200 ppm [5]

CSC(Oc1cc(C)c2ncc(I)cc2c1)C(=O)NC(C)(C)CC=NO (centres unmarked) [Compound No. 41, N-(3-Hydroxyimino-1,1-dimethyl-propyl)-2-(3-iodo-8-methyl-quinolin-6-yloxy)-2-methylsulfanylacetamide]
≥ 60%: pest or weed control at 200 ppm [1] | inhibition of growth at 20 ppm [2] | inhibition of growth at 200 ppm [3] | pest or weed control at 200 ppm [4] | pest or weed control at 200 ppm [5]

CCON=CC(C)(C)NC(=O)C(Oc1cc(C)c2ncc(I)cc2c1)SC (centres unmarked) [Compound No. 42, N-(2-Ethoxyimino-1,1-dimethyl-ethyl)-2-(3-iodo-8-methyl-quinolin-6-yloxy)-2-methylsulfanyl-acetamide]
≥ 60%: pest or weed control at 200 ppm [1] | pest or weed control at 200 ppm [6] | pest or weed control at 200 ppm [4]

CON=CC(C)(C)NC(=O)C(Oc1cc(C)c2ncc(I)cc2c1)SC (centres unmarked) [Compound No. 44, 2-(3-Iodo-8-methyl-quinolin-6-yloxy)-N-(2-methoxyimino-1,1-dimethyl-ethyl)-2-methylsulfanyl-acetamide]
≥ 60%: inhibition of growth at 20 ppm [2] | inhibition of growth at 200 ppm [3] | pest or weed control at 200 ppm [4] | pest or weed control at 200 ppm [5]

CON=CCC(C)(C)NC(=O)C(Oc1ccc2ncc(I)cc2c1)SC (centres unmarked) [Compound No. 46, 2-(3-Iodo-quinolin-6-yloxy)-N-(3-methoxyimino-1,1-dimethyl-propyl)-2-methylsulfanyl-acetamide]
≥ 60%: pest or weed control at 200 ppm [1] | pest or weed control at 200 ppm [6] | inhibition of growth at 200 ppm [3] | pest or weed control at 200 ppm [4] | pest or weed control at 200 ppm [5]

CCON=CC(C)(C)NC(=O)C(Oc1ccc2ncc(I)cc2c1)SC (centres unmarked) [Compound No. 51, N-(2-Ethoxyimino-1,1-dimethyl-ethyl)-2-(3-iodo-quinolin-6-yloxy)-2-methylsulfanyl-acetamide]
≥ 60%: inhibition of growth at 20 ppm [2] | inhibition of growth at 200 ppm [3] | pest or weed control at 200 ppm [4] | pest or weed control at 200 ppm [5]

COCC(C)(C=NOC)NC(=O)C(Oc1cc(C)c2ncc(Br)cc2c1)SC (centres unmarked) [Compound No. 63, 2-(3-Bromo-8-methyl-quinolin-6-yloxy)-N-(2-methoxyimino-1-methoxymethyl-1-methyl-ethyl)-2-methylsulfanyl-acetamide]
≥ 60%: pest or weed control at 200 ppm [1] | pest or weed control at 200 ppm [6] | inhibition of growth at 200 ppm [3] | pest or weed control at 200 ppm [4] | pest or weed control at 200 ppm [5]

CON=CC(C)(C)NC(=O)C(OC)Oc1ccc2ncc(Br)cc2c1 (centres unmarked) [Compound No. 70, 2-(3-Bromo-quinolin-6-yloxy)-2-methoxy-N-(2-methoxyimino-1,1-dimethyl-ethyl)-acetamide]
≥ 60%: pest or weed control at 200 ppm [1] | inhibition of growth at 20 ppm [2] | inhibition of growth at 200 ppm [3] | pest or weed control at 200 ppm [4] | pest or weed control at 200 ppm [5]

COCC(=O)ON=CCC(C)(C)NC(=O)C(Oc1cc(C)c2ncc(I)cc2c1)SC (centres unmarked) [Compound No. 103, 2-(3-Iodo-8-methyl-quinolin-6-yloxy)-N-(3-methoxyacetoxyimino-1,1-dimethyl-propyl)-2-methylsulfanyl-acetamide]
≥ 60%: pest or weed control at 200 ppm [6] | inhibition of growth at 200 ppm [3] | pest or weed control at 200 ppm [4] | pest or weed control at 200 ppm [5]

CON=C(Cc1ccsc1)C(C)(C)NC(=O)C(Oc1ccc2ncc(Br)cc2c1)SC (centres unmarked) [Compound No. 124, 2-(3-Bromo-quinolin-6-yloxy)-N-{2-[(E or Z)-methoxyimino]-1,1-dimethyl-3-thiophen-3-yl-propyl}-2-methylsulfanyl-acetamide]
≥ 60%: pest or weed control at 200 ppm [6] | inhibition of growth at 200 ppm [3]

CON=C(Cc1ccccn1)C(C)(C)NC(=O)C(Oc1ccc2ncc(Br)cc2c1)SC (centres unmarked) [Compound No. 127, 2-(3-Bromo-quinolin-6-yloxy)-N-{2-[(E or Z)-methoxyimino]-1,1-dimethyl-3-pyridin-2-yl-propyl}-2-methylsulfanyl-acetamide]
≥ 60%: inhibition of growth at 20 ppm [2] | inhibition of growth at 200 ppm [3] | pest or weed control at 200 ppm [4]

CSC(Oc1ccc2ncc(Br)cc2c1)C(=O)NC(C)(C)C=NOCC#N (centres unmarked) [Compound No. 140, 2-(3-Bromo-quinolin-6-yloxy)-N-(2-cyanomethoxyimino-1,1-dimethyl-ethyl)-2-methylsulfanyl-acetamide]
≥ 60%: pest or weed control at 200 ppm [1] | inhibition of growth at 20 ppm [2] | inhibition of growth at 200 ppm [3] | pest or weed control at 200 ppm [4] | pest or weed control at 200 ppm [5]

CSC(Oc1ccc2ncc(Br)cc2c1)C(=O)NC(C)(C)C=NOCC1CCCO1 (centres unmarked) [Compound No. 143, 2-(3-Bromo-quinolin-6-yloxy)-N-[1,1-dimethyl-2-(tetrahydro-furan-2-ylmethoxyimino)-ethyl]-2-methylsulfanyl-acetamide]
≥ 60%: pest or weed control at 200 ppm [1] | inhibition of growth at 20 ppm [2] | inhibition of growth at 200 ppm [3] | pest or weed control at 200 ppm [4] | pest or weed control at 200 ppm [5]

CCC(Oc1ccc2ncc(Br)cc2c1)C(=O)NC(C)(C)C=NO (centres unmarked) [Compound No. 150, 2-(3-Bromo-quinolin-6-yloxy)-N-(2-hydroxyimino-1,1-dimethyl-ethyl)-butyramide]
≥ 60%: pest or weed control at 200 ppm [1] | inhibition of growth at 20 ppm [2]

CCC(Oc1ccc2ncc(Br)cc2c1)C(=O)NC(C)(C)C=NOCCF (centres unmarked) [Compound No. 151, 2-(3-Bromo-quinolin-6-yloxy)-N-[2-(2-fluoro-ethoxyimino)-1,1-dimethyl-ethyl]-butyramide]
≥ 60%: pest or weed control at 200 ppm [1] | inhibition of growth at 20 ppm [2] | inhibition of growth at 200 ppm [3] | pest or weed control at 200 ppm [4] | pest or weed control at 200 ppm [5]

CCC(Oc1ccc2ncc(I)cc2c1)C(=O)NC(C)(C)C=NO (centres unmarked) [Compound No. 152, N-(2-Hydroxyimino-1,1-dimethyl-ethyl)-2-(3-iodo-quinolin-6-yloxy)-butyramide]
≥ 60%: pest or weed control at 200 ppm [1] | inhibition of growth at 20 ppm [2] | inhibition of growth at 200 ppm [3] | pest or weed control at 200 ppm [4] | pest or weed control at 200 ppm [5]
